Laboratory results published in patent US20240059689A1, “PURINE DERIVATIVES AS ANTICANCER AGENTS” (Tango Therapeutics, Inc., priority 2021, published 2024).

Key:
HCC1954 = assay: Viability assay, BRCA1 WT cell line HCC1954; format: cell-based; conditions: Homo sapiens, HCC1954, viability, read-out: HCC1954 rel IC50
From the text: (§1) Table 1 also indicates IC50 values in a viability assay for a non-isogenic pair of BRCA1 mutant (column 5-MDA-MB-436) and BRCA1 WT (column 6—HCC1954) cell lines. These values indicate the effect of treatment with compound on cell survival.

MDA-MB-436 = assay: Viability assay, BRCA1 mutant cell line MDA-MB-436; format: cell-based; conditions: Homo sapiens, MDA-MB-436, viability, BRCA1 mutant MDA-MB-436; read-out: MDA-MB-436 rel IC50
From the text: as §1

USP1-UAF1 = USP1-UAF1 (Homo sapiens, UniProt O94782); assay: Ubiquitin Rhodamine assay of USP1-UAF1 activity; format: biochemical
Chain of USP1-UAF1 (O94782 whole entry): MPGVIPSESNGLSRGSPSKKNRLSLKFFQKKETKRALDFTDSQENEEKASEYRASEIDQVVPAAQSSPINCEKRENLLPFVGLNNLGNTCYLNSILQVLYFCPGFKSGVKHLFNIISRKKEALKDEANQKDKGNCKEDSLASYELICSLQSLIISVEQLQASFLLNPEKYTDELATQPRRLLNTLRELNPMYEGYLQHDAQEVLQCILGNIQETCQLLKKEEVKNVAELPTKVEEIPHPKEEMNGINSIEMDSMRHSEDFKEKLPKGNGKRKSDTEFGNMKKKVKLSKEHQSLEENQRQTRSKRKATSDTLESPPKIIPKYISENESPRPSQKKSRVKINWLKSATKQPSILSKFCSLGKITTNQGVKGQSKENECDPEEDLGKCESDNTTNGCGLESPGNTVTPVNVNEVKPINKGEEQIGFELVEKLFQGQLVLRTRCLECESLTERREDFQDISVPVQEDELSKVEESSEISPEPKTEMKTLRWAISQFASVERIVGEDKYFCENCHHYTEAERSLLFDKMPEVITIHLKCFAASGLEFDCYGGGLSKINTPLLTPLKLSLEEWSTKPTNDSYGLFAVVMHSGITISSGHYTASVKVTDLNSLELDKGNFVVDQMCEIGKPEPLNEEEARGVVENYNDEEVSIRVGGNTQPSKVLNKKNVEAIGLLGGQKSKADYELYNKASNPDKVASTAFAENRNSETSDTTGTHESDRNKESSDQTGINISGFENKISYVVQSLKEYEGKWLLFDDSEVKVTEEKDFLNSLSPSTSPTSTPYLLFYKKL
Chain of USP1-UAF1 (Q8TAF3 whole entry partner): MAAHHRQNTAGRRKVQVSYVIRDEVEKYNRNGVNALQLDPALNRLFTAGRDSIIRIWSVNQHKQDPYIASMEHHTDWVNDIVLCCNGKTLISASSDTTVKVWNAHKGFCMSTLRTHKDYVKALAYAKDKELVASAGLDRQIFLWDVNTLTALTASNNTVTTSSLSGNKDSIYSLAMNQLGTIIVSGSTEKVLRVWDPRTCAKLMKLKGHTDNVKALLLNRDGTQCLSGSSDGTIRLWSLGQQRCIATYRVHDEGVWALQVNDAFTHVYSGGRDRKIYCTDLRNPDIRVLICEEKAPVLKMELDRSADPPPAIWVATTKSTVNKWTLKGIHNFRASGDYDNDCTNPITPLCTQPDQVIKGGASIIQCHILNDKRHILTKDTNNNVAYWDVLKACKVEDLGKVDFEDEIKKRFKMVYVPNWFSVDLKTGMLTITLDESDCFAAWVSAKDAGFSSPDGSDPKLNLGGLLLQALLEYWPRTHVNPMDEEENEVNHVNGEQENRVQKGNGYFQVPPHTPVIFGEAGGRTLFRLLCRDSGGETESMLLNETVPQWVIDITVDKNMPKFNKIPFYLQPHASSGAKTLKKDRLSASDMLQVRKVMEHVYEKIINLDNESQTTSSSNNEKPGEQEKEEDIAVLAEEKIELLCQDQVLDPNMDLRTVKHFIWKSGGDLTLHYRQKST
Description: Certain compounds of the disclosure were assessed for USP1-UAF1 activity in a Ubiquitin Rhodamine assay as described in Biology Example 1.

monoubiquitinated PCNA = assay: AlphaLISA assay measuring monoubiquitinated PCNA in MDA-MB-436; format: cell-based; conditions: Homo sapiens, MDA-MB-436, monoubiquitinated PCNA, read-out: Alpha Lisa IC50
From the text: Table 1 also indicates IC50 values for exemplary compounds in an AlphaLISA assay measuring monoubiquitinated PCNA in a BRCA1 mutant cell line (MDA-MB-436; column 7).

SMILES	IC50 (HCC1954) [nM]	IC50 (MDA-MB-436) [nM]	IC50 (USP1-UAF1) [nM]	IC50 (monoubiquitinated PCNA) [nM]
CCOc1cc(C(F)(F)F)nn1-c1ccc(Cn2c(=N)n(CC(F)(F)F)c3cnc(-c4c(OC)ncnc4C4CC4)nc32)cc1 [Example T-114]	≥ 10000	< 100	30 to 100	< 100
COc1ncnc(C2CC2(F)F)c1-c1ncc2c(n1)n(Cc1ccc(-c3nc(C(F)(F)F)cn3C)cc1)c(=N)n2CC(F)(F)F (stereo not shown) [Example T-116, 2-[4-(2,2-difluorocyclopropyl)-6-methoxy-pyrimidin-5-yl]-9-[[4-[1-methyl-4-(trifluoromethyl)imidazol-2-yl]phenyl]methyl]-7-(2,2,2-trifluoroethyl)purin-8-imine]	≥ 10000	< 100	100 to 10000	< 100
COc1ncnc(C2CC2)c1-c1ncc2c(n1)n(Cc1ccc(-n3nc(C(F)(F)F)cc3OC)cc1)c(=N)n2CC(F)(F)F [Example T-117, 2-(4-cyclopropyl-6-methoxy-pyrimidin-5-yl)-9-[[4-[5-methoxy-3-(trifluoromethyl)pyrazol-1-yl]phenyl]methyl]-7-(2,2,2-trifluoroethyl)purin-8-imine]	≥ 10000	< 100	30 to 100	< 100
COc1ncnc(C2CC2)c1-c1ncc2c(n1)n(Cc1ccc(-c3nc(C(F)(F)F)cn3C)c(F)c1)c(=N)n2CC(F)(F)F [Example T-118, 2-(4-cyclopropyl-6-methoxypyrimidin-5-yl)-9-(3-fluoro-4-(1-methyl-4-(trifluoromethyl)-1H-imidazol-2-yl)benzyl)-7-(2,2,2-trifluoroethyl)-7H-purin-8(9H)-imine]	≥ 10000	< 100	100 to 10000	< 100
CCOc1ncnc(C2CC2)c1-c1ncc2c(n1)n(Cc1ccc(-c3nc(C(F)(F)F)cn3C)cc1)c(=N)n2CC(F)(F)F [Example T-119, 2-(4-cyclopropyl-6-ethoxy-pyrimidin-5-yl)-9-[[4-[1-methyl-4-(trifluoromethyl)imidazol-2-yl]phenyl]methyl]-7-(2,2,2-trifluoroethyl)purin-8-imine]	≥ 10000	100 to 250	100 to 10000	100 to 250
COc1ncnc(C2CC2)c1-c1ncc2c(n1)n(Cc1ccc(-c3nc(C(F)(F)F)cn3C3CCC3)cc1)c(=N)n2CC(F)(F)F [Example T-120, 9-[[4-[1-cyclobutyl-4-(trifluoromethyl)imidazol-2-yl]phenyl]methyl]-2-(4-cyclopropyl-6-methoxy-pyrimidin-5-yl)-7-(2,2,2-trifluoroethyl)purin-8-imine]	≥ 10000	< 100	< 30	< 100
COc1nccc(F)c1-c1ncc2c(n1)n(Cc1ccc(-c3nc(C(F)(F)F)cn3C)cc1)c(=N)n2CC(F)(F)F [Example T-121, 2-(4-fluoro-2-methoxy-3-pyridyl)-9-[[4-[1-methyl-4-(trifluoromethyl)imidazol-2-yl]phenyl]methyl]-7-(2,2,2-trifluoroethyl)purin-8-imine]	≥ 10000	100 to 250	30 to 100	250 to 10000
CNc1nc(OC)c(-c2ncc3c(n2)n(Cc2ccc(-c4nc(C(F)(F)F)cn4C)cc2)c(=N)n3C)c(C2CC2)n1 [Example T-122, 4-cyclopropyl-5-[8-imino-7-methyl-9-[[4-[1-methyl-4-(trifluoromethyl)imidazol-2-yl]phenyl]methyl]purin-2-yl]-6-methoxy-N-methyl-pyrimidin-2-amine]	≥ 10000	100 to 250	100 to 10000	250 to 10000
COc1ncnc(C2CC2)c1-c1ncc2c(n1)n(Cc1ccc(-c3nc(C(F)(F)F)cn3C)cc1)c(=N)n2CC(F)F [Example T-123, 2-(4-cyclopropyl-6-methoxy-pyrimidin-5-yl)-7-(2,2-difluoroethyl)-9-[[4-[1-methyl-4-(trifluoromethyl)imidazol-2-yl]phenyl]methyl]purin-8-imine]	≥ 10000	< 100	30 to 100	< 100
COc1cc(C(F)(F)F)nn1-c1ccc(Cn2c(=N)n(CC(F)(F)F)c3cnc(-c4c(C)cnn4C(C)C)nc32)cc1 [Example T-124, 2-(2-isopropyl-4-methyl-pyrazol-3-yl)-9-[[4-[5-methoxy-3-(trifluoromethyl)pyrazol-1-yl]phenyl]methyl]-7-(2,2,2-trifluoroethyl)purin-8-imine]	≥ 10000	< 100	< 30	< 100
COc1ncnc(C2CC2)c1-c1ncc2c(n1)n(Cc1cc(F)c(-c3nc(C(F)(F)F)cn3C)c(F)c1)c(=N)n2CC(F)(F)F [Example T-126, 2-(4-cyclopropyl-6-methoxy-pyrimidin-5-yl)-9-[[3,5-difluoro-4-[1-methyl-4-(trifluoromethyl)imidazol-2-yl]phenyl]methyl]-7-(2,2,2-trifluoroethyl)purin-8-imine]	≥ 10000	< 100	30 to 100	< 100
COc1ncnc(C2CC2)c1-c1ncc2c(n1)n(Cc1cc(F)c(-n3nc(C(F)(F)F)cc3OC)c(F)c1)c(=N)n2CC(F)(F)F [Example T-127]	≥ 10000	< 100	30 to 100	< 100
Cc1cnn(C(C)C)c1-c1ncc2c(n1)n(Cc1ccc(-c3nc(C(F)(F)F)cn3C)cc1)c(=N)n2CC(F)(F)F [Example T-130, 2-(2-isopropyl-4-methyl-pyrazol-3-yl)-9-[[4-[1-methyl-4-(trifluoromethyl)imidazol-2-yl]phenyl]methyl]-7-(2,2,2-trifluoroethyl)purin-8-imine]	≥ 10000	< 100	< 30	< 100
COc1ncnc(C2CC2)c1-c1ncc2c(n1)n([C@H](C)c1ccc(-c3nc(C(F)(F)F)cn3C)cc1)c(=N)n2C [Example T-131, 2-(4-cyclopropyl-6-methoxy-pyrimidin-5-yl)-7-methyl-9-[(1R)-1-[4-[1-methyl-4-(trifluoromethyl)imidazol-2-yl]phenyl]ethyl]purin-8-imine]	≥ 10000	< 100	30 to 100	< 100

Other lines, results leading:

IC50 (HCC1954) [nM]	IC50 (MDA-MB-436) [nM]	IC50 (USP1-UAF1) [nM]	IC50 (monoubiquitinated PCNA) [nM]	SMILES
≥ 10000	< 100	< 30	< 100	COc1ncnc(C2CC2)c1-c1ncc2c(n1)n([C@H](C)c1ccc(-n3nc(C(F)(F)F)cc3OC)cc1)c(=N)n2CC(F)(F)F [Example T-109, 2-(4-cyclopropyl-6-methoxy-pyrimidin-5-yl)-9-[(1R)-1-[4-[5-methoxy-3-(trifluoromethyl)pyrazol-1-yl]phenyl]ethyl]-7-(2,2,2-trifluoroethyl)purin-8-imine]
≥ 10000	100 to 250	30 to 100	250 to 10000	COc1ncnc(OC)c1-c1ncc2c(n1)n(Cc1ccc(-c3nc(C(F)(F)F)cn3C)cc1)c(=N)n2CC(F)(F)F [Example T-110, 2-(4,6-dimethoxypyrimidin-5-yl)-9-[[4-[1-methyl-4-(trifluoromethyl)imidazol-2-yl]phenyl]methyl]-7-(2,2,2-trifluoroethyl)purin-8-imine]
≥ 10000	< 100	30 to 100	< 100	COc1ncnc(C2CC2(F)F)c1-c1ncc2c(n1)n(Cc1ccc(-c3nc(C(F)(F)F)cn3C)cc1)c(=N)n2C (stereo not shown) [Example T-111, 2-(4-(2,2-difluorocyclopropyl)-6-methoxypyrimidin-5-yl)-7-methyl-9-(4-(1-methyl-4-(trifluoromethyl)-1H-imidazol-2-yl)benzyl)-7H-purin-8(9H)-imine]
≥ 10000	< 100	30 to 100	100 to 250	Cn1cc(C(F)(F)F)nc1-c1ccc(Cn2c(=N)n(CC(F)(F)F)c3cnc(-c4c(OC(F)(F)F)ccnc4C4CC4)nc32)cc1 [Example T-112, 2-[2-cyclopropyl-4-(trifluoromethoxy)-3-pyridyl]-9-[[4-[1-methyl-4-(trifluoromethyl)imidazol-2-yl]phenyl]methyl]-7-(2,2,2-trifluoroethyl)purin-8-imine]
≥ 10000	< 100	< 30	< 100	COc1ncnc(C2CC2)c1-c1ncc2c(n1)n(Cc1ccc(-n3nc(C(F)(F)F)cc3OC)cc1)c(=N)n2CC(F)F [Example T-113, 2-(4-cyclopropyl-6-methoxy-pyrimidin-5-yl)-7-(2,2-difluoroethyl)-9-[[4-[5-methoxy-3-(trifluoromethyl)pyrazol-1-yl]phenyl]methyl]purin-8-imine]
250 to 10000	100 to 250	30 to 100	100 to 250	Cc1ccnc(OC(F)F)c1-c1ncc2c(n1)n(Cc1ccc(-c3nc(C(F)(F)F)cn3C)cc1)c(=N)n2CC(F)(F)F [Example T-115, 2-(2-(difluoromethoxy)-4-methylpyridin-3-yl)-9-(4-(1-methyl-4-(trifluoromethyl)-1H-imidazol-2-yl)benzyl)-7-(2,2,2-trifluoroethyl)-7H-purin-8(9H)-imine]
250 to 10000	100 to 250	30 to 100	100 to 250	Cn1cc(C(F)(F)F)nc1-c1ccc(Cn2c(=N)n(CC(F)(F)F)c3cnc(-c4cccnc4OC(F)F)nc32)cc1 [Example T-125, 2-[2-(difluoromethoxy)-3-pyridyl]-9-[[4-[1-methyl-4-(trifluoromethyl)imidazol-2-yl]phenyl]methyl]-7-(2,2,2-trifluoroethyl)purin-8-imine]
250 to 10000	< 100	< 30	< 100	COc1ncnc(C2CC2)c1-c1ncc2c(n1)n(Cc1ccc(-c3nc(C(F)(F)F)sc3C)cc1)c(=N)n2CC(F)(F)F [Example T-128]
